# Source: patent US20170145363A1, “MICROFLUIDIC DUAL-WELL DEVICE FOR HIGHTHROUGHPUT SINGLE-CELL CAPTURE AND CULTURE” (NATIONAL HEALTH RESEARCH INSTITUTES, priority 2015, published 2017)
# Tested on: A549 cells
# Assay: EGF promoted colony formation assay of A549 single cells in DW device
# Assay type: cell-based, human
# Conditions: 200 ng mL-1 EGF in DMEM with 10% FBS, 7 days of culture, colonies >15 cells per culture-well, control medium 12.10%
# Experimental: In the EGF promoted colony formation assay, 200 μL of A549 cells at a concentration of 2.2-2.5×10^6 cells per mL was injected into the DW device manually and allowed to settle for 2 min, followed by injecting DMEM with 20% FBS and 1% antibiotics into the microchannel immediately to wash off excess cells in the channel at a flow rate of 600 μL min^−1 for 30 s. Subsequently, the inlet and outlet holes were sealed and the device was flipped upside down to obtain a single cell in a culture-well. The device was then placed in a humidified incubator at 37° C. with 5% CO2 as described above. After 1 day of culture, one of the device (for the control experiment) was injected with 300 μL of DMEM containing 10% FBS and 1% antibiotics to replace the original medium. […] Colonies with cell numbers higher than 15 cells in a culture-well were scored as cell colonies.
# Due to its high single-cell capture efficiency and large space of culture wells, the DW device represents an attractive tool for in vitro single-cell colony formation assays in which the growth of individual cells is analyzed. […] The portability and transparency of the DW device allowed the cells in the device to be conveniently analyzed with a conventional microscope during cell culture experiments (FIGS. 7A-D). […]
substance,measurement,value
"EGF: epithelial growth factor (EGF, PeproTech, USA) supplied in the culture medium at 200 ng mL-1",colony forming efficiency,17.56%
